Experimental data as given in ChEMBL document CHEMBL1137662, “Effect of oral treatment with hexadecyloxypropyl-[(S)-9-(3-hydroxy-2- phosphonylmethoxypropyl)adenine] [(S)-HPMPA] or octadecyloxyethyl-(S)-HPMPA on cowpox or vaccinia virus infections in mice” (Antimicrob Agents Chemother, 2007).
Activity calls are given as the source filed them. The rule behind the calls is not given here.

Legend:
[1] = Selectivity index, ratio of CC50 for HFF cells to EC50 for Cowpox virus Brighton; format: toxicity, cell-based; details: human, read-out: Ratio CC50/EC50
[2] = Selectivity index, ratio of CC50 for HFF cells to EC50 for Vaccinia virus WR; format: toxicity, cell-based; details: human, read-out: Ratio CC50/EC50
[3] = test system: Cowpox virus; assay: Antiviral activity against Cowpox virus Brighton in HFF cells assessed as reduction of viral replication after 3 days; format: functional, organism-based, Cowpox virus (Brighton Red); details: 72 h
[4] = test system: Vaccinia virus; assay: Antiviral activity against Vaccinia virus WR in HFF cells assessed as reduction of viral replication after 3 days; format: functional, organism-based; details: Orthopoxvirus vaccinia, 72 h
[5] = test system: Vaccinia virus; assay: Antiviral activity against Vaccinia virus Copenhagen in HFF cells assessed as reduction of viral replication after 3 days; format: functional, organism-based; details: Orthopoxvirus vaccinia, 72 h
[6] = Selectivity index, ratio of CC50 for HFF cells to EC50 for Vaccinia virus Copenhagen; format: toxicity, cell-based; details: human, read-out: Ratio CC50/EC50
[7] = Cytotoxicity against HFF cells after 7 days; format: cell-based; details: human
[8] = test system: Cowpox virus; assay: Antiviral activity against Cowpox virus Brighton infected BALB/c mouse assessed as mortality at 10 mg/kg, ip treated for 5 days after 72 hrs of viral inoculation; format: functional, Cowpox virus (Brighton Red); details: route intraperitoneal
[9] = test system: Vaccinia virus; assay: Antiviral activity against Vaccinia virus WR infected BALB/c mouse assessed as reduction of viral titer in lung at 30 mg/kg, po treated for 5 days after 24 hrs of viral inoculation; format: functional, organism-based; parameters: dose 30 mg/kg; details: Orthopoxvirus vaccinia
[10] = test system: Cowpox virus; assay: Antiviral activity against Cowpox virus Brighton infected BALB/c mouse assessed as mean death day at 10 mg/kg, po treated for 5 days after 48 hrs of viral inoculation; format: functional, Cowpox virus (Brighton Red)
[11] = test system: Cowpox virus; assay: Antiviral activity against Cowpox virus Brighton infected BALB/c mouse assessed as mortality at 10 mg/kg, ip treated for 5 days after 48 hrs of viral inoculation; format: functional, Cowpox virus (Brighton Red); details: route intraperitoneal
[12] = test system: Cowpox virus; assay: Antiviral activity against Cowpox virus Brighton infected BALB/c mouse assessed as mortality at 10 mg/kg, ip treated for 5 days after 24 hrs of viral inoculation; format: functional, Cowpox virus (Brighton Red); details: route intraperitoneal
[13] = test system: Vaccinia virus; assay: Antiviral activity against Vaccinia virus WR infected BALB/c mouse assessed as mortality at 15 mg/kg, ip treated for 5 days after 72 hrs of viral inoculation; format: functional, Orthopoxvirus vaccinia; details: route intraperitoneal
[14] = test system: Vaccinia virus; assay: Antiviral activity against Vaccinia virus WR infected BALB/c mouse assessed as mortality at 15 mg/kg, ip treated for 5 days after 48 hrs of viral inoculation; format: functional, Orthopoxvirus vaccinia; details: route intraperitoneal
[15] = test system: Vaccinia virus; assay: Antiviral activity against Vaccinia virus WR infected BALB/c mouse assessed as mortality at 15 mg/kg, ip treated for 5 days after 24 hrs of viral inoculation; format: functional, Orthopoxvirus vaccinia; details: route intraperitoneal
[16] = test system: Vaccinia virus; assay: Antiviral activity against Vaccinia virus WR infected BALB/c mouse assessed as mortality at 10 mg/kg, ip treated for 5 days after 72 hrs of viral inoculation; format: functional, Orthopoxvirus vaccinia; details: route intraperitoneal
[17] = test system: Vaccinia virus; assay: Antiviral activity against Vaccinia virus WR infected BALB/c mouse assessed as mortality at 10 mg/kg, ip treated for 5 days after 48 hrs of viral inoculation; format: functional, Orthopoxvirus vaccinia; details: route intraperitoneal
[18] = test system: Vaccinia virus; assay: Antiviral activity against Vaccinia virus WR infected BALB/c mouse assessed as mortality at 10 mg/kg, ip treated for 5 days after 24 hrs of viral inoculation; format: functional, Orthopoxvirus vaccinia; details: route intraperitoneal
[19] = Oral bioavailability in Swiss Webster mouse at 10 mg/kg; format: ADME, organism-based; details: in vivo

Row | Compound | selectivity ratio [1] | selectivity ratio [2] | EC50 [3] [µM] | EC50 [4] [µM] | EC50 [5] [µM] | selectivity ratio [6] | CC50 at 168 h [7] [µM] | Activity [8] [%] | Activity [9] | Activity [10] [days] | Activity [11] [%] | Activity [12] [%] | Activity [13] [%] | Activity [14] [%] | Activity [15] [%] | Activity [16] [%] | Activity [17] [%] | Activity [18] [%] | bioavailability [19] [%]
1 | CCCCCCCCCCCCCCCCOCCCOP(=O)(O)CO[C@H](CO)Cn1ccc(N)nc1=O [BRINCIDOFOVIR] | 52 | 28 | 0.6 | 1.1 | 0.8 | 39 | 31 | – | – | – | – | – | – | – | – | – | – | – | –
2 | Nc1ccn(C[C@@H](CO)OCP(=O)(O)O)c(=O)n1.O.O [CIDOFOVIR] | > 9.1 | > 10.9 | 35 | – | 26 | > 12.2 | > 317 | 0 | Active | 11 | 0 | 0 | 0 | 100 | 0 | 143 | 0 | 0 | –
3 | Nc1ncnc2c1ncn2C[C@@H](CO)OCP(=O)(O)O | > 72 | > 44 | 4 | 6.5 | 2.7 | > 107 | > 289 | – | – | – | – | – | – | – | – | – | – | – | 24
